Tests used:
Fn14 = molecular target: T1, Fn14 (Homo sapiens, UniProt Q9NP84); assay: Surface Plasmon Resonance assay, Fn14-Fc sensor surface; type: binding; settings: Fn14 surface, SPR, 25 degrees Celsius
T1 construct: the human Fc fragment-tagged Fn14 extracellular domain (R&D Systems) was captured
T1 sequence (Q9NP84 28-80 limits assumed): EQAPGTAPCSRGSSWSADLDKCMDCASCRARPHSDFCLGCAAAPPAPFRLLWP
Experimental: Surface Plasmon Resonance (SPR) Assay. The binding affinity of at least one of the compounds (e.g., L524-0366) to TWEAK and Fn14-Fx was determined using a BIAcore T100 optical biosensor (GE Healthcare) at 25 degrees Celsius at the Arizona Proteomics Consortium. Recombinant human TWEAK (20 μg/mL in 10 mM HEPES pH 7.4, 150 mM NaCl, 3 mM EDTA, 0.05% Tween 20) or recombinant human Fn14-Fc (20 μg/mL in 10 mM NaOAc pH 4.0) were covalently coupled to separate flow cells on a BIAcore CM5 sensor chip using standard amine coupling chemistry as per manufacturer's protocol. Final immobilization levels were 6000 Response Units (RU) for TWEAK and 13,000 RU for FN14-Fc. The first flow path of the chip was treated with the same coupling and blocking reagents without protein and was used as a reference for each binding cycle. Functionality of the TWEAK and the Fn14-Fc sensor surfaces were verified by injecting Fn14-Fc and TWEAK over them respectively. Serial dilutions of L524-0366 or cycloheximide (control) from 0 to 50 μM were made in running buffer (10 mM HEPES pH 7.4, 150 mM NaCl, 3 mM EDTA, 1% DMSO). […] Equilibrium dissociation constants for the small molecules were calculated by fitting the double reference subtracted data to Req=((CRmax)/(KD+C))+RI, where RI is the bulk refractive index contribution.

TWEAK-Fn14 signaling = assay: Cell based NF-κB luciferase reporter assay, Fn14-NF-κB-Luc cells stimulated with TWEAK; parameters: species or system human
Experimental: NF-κB luciferase reporter Assay. The capacity of sTWEAK or sTWEAK variants to activate Fn14 signaling was evaluated using engineered reporter cell lines that express luciferase upon NF-κB activation. Two reporter cell lines were utilized for these experiments. HEK293 NF-κB luciferase (courtesy of Dr. Jeff Winkles) were generated by transfecting HEK293 cells with a reporter plasmid containing 5 copies of a consensus NF-κB binding site upstream of a minimal CMV promoter driving expression of firefly luciferase. The second cell line, designated HEK293 NF-κB luciferase Fn14 FL, was generated by stably transfecting the HEK293 NF-κB luciferase cell line with full length Fn14. To assay the binding of sTWEAK or sTWEAK variants to Fn14, reporter cells were seeded in tissue culture treated white 96-well plates at 1×10^4 cells/well in 80 μL Opti-MEM media (Invitrogen) and incubated for 48 hr at 37° C. After 48 hr incubation, 20 μL of 5× purified recombinant TWEAK (Peprotech Inc.; 150 ng/mL) in 1 mg/mL BSA in PBS was added to each well and incubated for 5 hr at 37° C. as positive control. Similarly, equivalent amounts of sTWEAK or sTWEAK variant prepared via IVTTas determined using ELISA assay described above was added in 20 μl. IVTT solution lacking a cDNA template in 1 mg/mL BSA in PBS and 1 mg/mL BSA in PBS alone was used as an additional control. At the end of 5 hr incubation, the luminescent signal was determined using Bright-Glo assay kit (Promega, Madison, Wis.) according to the manufacturer's instructions.
Briefly, Fn14-NF-κB-Luc reporter cells, (Fn14 overexpressing HEK293 NF-κB luciferase cells), were seeded in tissue culture treated white 96-well plates at 1×10^4 cells/well in 80 μL Opti-MEM media (Invitrogen) and incubated for 48 hr at 37° C. […] Luminescent signal was determined using Bright-Glo assay kit (Promega, Madison, Wis.) according to the manufacturer's instructions and normalized to negative control. […] IC50 values for dose response curve were determined using the curve fitting functionality of GraphPad Prism software.

Kd (Fn14): 7.12 µM
IC50 (TWEAK-Fn14 signaling; Homo sapiens, Fn14-NF-κB-Luc cells stimulated with TWEAK, 0.75 μM to 250 μM, read-out: IC50, TWEAK-Fn14 stimulated luciferase induction): 7.8 µM
SMILES: O=C(c1cn(-c2cccc(Cl)c2)nn1)N1CCSCC1 [Compound L524-0366]
inhibition of TWEAK-induced NF-κB driven luciferase activity (TWEAK-Fn14 signaling; Fn14-NF-κB-Luc cells, 20 μM): significant inhibition
fold higher inhibitory activity against TWEAK-Fn14 signaling (TWEAK-Fn14 signaling; TWEAK/Fn14-NF-κB-Luc versus TNFα/NF-κB-Luc IC50): approximately 5 fold
